The source of these data is publication PMC8654832 (Scientific Reports, 2021).

Data set [1] deals with mitochondrial inner membrane potential (ΔΨ). The experiment in a line: Mitochondrial inner membrane potential, Rhodamine 123 fluorescence quenching in isolated mitochondria. Conditions: for ligand concentration at which the membrane potential is almost fully uncoupled / ligand concentration at which relative fluorescence c.a. 0.95 was reached: Rhodamine 123, yeast mitochondria; for ligand concentration required to recover 50% of the initial fluorescence drop: Rhodamine 123, yeast mitochondria energized with EtOH, normalized to CCCP; for ligand concentration at which relative fluorescence c.a. 0.95 was reached: 1 = fully uncoupled (CCCP). The source says: In response to variations in ΔΨ this dye accumulates proportionally inside the mitochondrial matrix, where its fluorescence is quenched, thus fluorescence changes reflect the changes in the IM potential[33],[34]. […] All the data were normalized relative to the fluorescence intensity after addition CCCP (set to 1).
To quantify the effect of ligand addition we have compared the ligand concentrations required to recover 50% of the initial fluorescence drop (dotted line), i.e. the average of value after addition of EtOH and fully decoupled ΔΨ.
At the end of each experiment the carbonyl cyanide-m-chlorophenyl hydrazone (CCCP, the IM potential uncoupler) was added at 4 μM for the normalization.

Data set [2] concerns the target T1, catalytic subunit of human protein kinase CK2 (hCK2α) (Homo sapiens, UniProt P68400). Kind of data set: Isothermal titration calorimetry (ITC), reverse mode. Background: In ITC the heat of successive injections is recorded.
The subject of data set [3] is HEPG2 (hepatocellular carcinoma). The experiment in a line: Cell viability, MTT assay. Conditions: read-out: Cell viability data, IC50. In general terms: Tetrazolium assays rely on reduction of a dye to a coloured formazan, in cell work by metabolically active cells.
Data set [4] has as its system HCT116p53-/- (colorectal carcinoma). Kind of data set: Cell viability, MTT assay. Particulars: 72 h, read-out: Cell viability data, IC50.
Data set [5] deals with T1, catalytic subunit of human protein kinase CK2 (hCK2α). The experiment in a line: Microscale thermophoresis (MST) pseudo-titration. The format is binding. More on the design: made in house; host or cells: Escherichia coli BL21(DE3), plasmid pET28. As to the method: Samples of protein (50 nM in 25 mM Hepes buffer pH 8 with 0.5 M NaCl and 1%DMSO content v/v) labeled with Monolith His-Tag Labeling Kit RED-tris-NTA kit (NanoTemper Technologies) were prepared with varying ligand concentration according to previously described protocol. The measurements were performed using Monolith NT.115 (NanoTemper Technologies) apparatus in standard capillaries (Nanotemper Technologies). For each ligand six independent pseudo-titration experiments, each with 16 ligand dilutions, were performed. […] The model of two independent binding sites, implemented in origin, has been already described and tested. It is worth noting that the used method of data treatment goes beyond the standard MST software capabilities.
In general terms: Microscale thermophoresis detects binding through changes in fluorescence in a small temperature gradient.

For data set [6], the target named is T2, hCK2α (Homo sapiens, UniProt P68400).
T2 construct: made in house; host or cells: Escherichia coli BL21(DE3), plasmid pET28
Kind of data set: In vitro inhibition of hCK2α, ADP-Glo kinase assay. In kind it is biochemical. Conditions: 10 μM ATP, 10 μM peptide […], 20 min at 30 °C. As for the experimental part: The compound inhibitory activity was monitored based on the luminescence measured with the SpectraMax iD3 Multi-Mode Microplate Reader (Molecular Devices, San Jose, CA, USA), using the previously described method with the aid of ADP-Glo kinase assay (Promega, Walldorf, Germany)[35]. The measurements were carried in 96-well plate in volume of 25 μl in 20 mM Tris–HCl buffer (pH 7.5), containing 100 ng of hCK2α (1 μl), 10 μM CK2 substrate peptide […] (Biaffin GmbH & Co KG), 10 μM ATP, 20 mM MgCl2 and 2.5 μl of ligand serially diluted in DMSO. The reaction was initiated by adding the enzyme and kept going for 20 min at 30 °C.

Data set [7] has as its system A-431 (epidermoid carcinoma). The experiment in a line: Cell viability, MTT assay. Conditions: read-out: Cell viability data, IC50.
In data set [8] the target is T1, catalytic subunit of human protein kinase CK2 (hCK2α). More on the design: made in house; host or cells: Escherichia coli BL21(DE3), plasmid pET28. Conditions: DSF, binding to hCK2α, cited from earlier work.
The subject of data set [9] is HCT116 (colorectal carcinoma). Kind of data set: Cell viability, MTT assay. Particulars: read-out: Cell viability data, IC50.
The nature of data set [10]: Dynamic light scattering (DLS), aggregation in aqueous medium. Particulars: 25 mM Tris–HCl pH 8, 0.5 M NaCl, 2% DMSO, 25 °C. The format is physicochemical. As for the experimental part:
Experiments were carried out at 25 °C with the DynaPro NanoStar 192-DPN apparatus (Wyatt Technology) equipped with 661 nm laser. The autocorrelation function for the light scattered by solute placed in Eppendorf disposable cuvettes (50–2000 μl) was measured in the range of 0.5 μs– 0.1 s at solute concentration for which short-time ACF signal approached 0.2. Solutions with 2% (v/v) DMSO content were prepared in 25 mM Tris–HCl (pH 8, 0.5 M NaCl) filtered with 220 nm pore size syringe filter. All samples were centrifuged (9000 g) for 3 min immediately before the experiment.

Setting [11] is: second, weak site (solvent exposed region at alpha/beta interface), read-out: Kd2.
[12] abbreviates: strongly binding site (ATP-binding site), pH 8, 0.5 M NaCl, 1% DMSO, read-out: Kd1.

Like-named read-outs stand apart in the source and are kept apart here.

T2 sequence (P68400 whole entry): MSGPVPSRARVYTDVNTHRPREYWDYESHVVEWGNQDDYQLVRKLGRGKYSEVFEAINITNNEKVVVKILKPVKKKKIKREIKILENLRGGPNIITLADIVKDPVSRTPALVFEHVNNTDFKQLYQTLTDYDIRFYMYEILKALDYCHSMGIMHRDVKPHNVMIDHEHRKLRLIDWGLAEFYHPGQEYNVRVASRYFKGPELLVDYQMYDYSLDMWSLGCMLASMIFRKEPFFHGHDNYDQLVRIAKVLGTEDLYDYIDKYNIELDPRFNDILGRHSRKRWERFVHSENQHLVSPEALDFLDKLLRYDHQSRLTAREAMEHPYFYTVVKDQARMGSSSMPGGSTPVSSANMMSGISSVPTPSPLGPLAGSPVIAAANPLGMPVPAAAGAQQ
T1 sequence (P68400 whole entry): as above

Usually IC50 stands for the concentration that inhibits the measured activity by half. For the molecule `Brc1cc2nn[nH]c2cc1Br` [HBBH, 5,6-dibromo-1H-benzotriazole, reference compound], in data set [1], the “ligand concentration at which the membrane potential is almost fully uncoupled” value is reported as about 15 µM. The “ligand concentration required to recover 50% of the initial fluorescence drop” value in data set [1] is over 5 µM. The “ligand concentration at which relative fluorescence c.a. 0.95 was reached” value in [1] is given as about 12 µM. Moreover, the Kd was 34 ± 4 nM in data set [2], 327 ± 95 nM in data set [5] (setting [11]) and 29 ± 13 nM in [5] (setting [12]). The IC50 in data set [3] (Homo sapiens, HepG2, 72 h) is 18 ± 4 µM; in data set [4] (Homo sapiens), 13 ± 3 µM; in data set [6] it was 1190 ± 530 nM; in [7] (Homo sapiens, A-431, 72 h), 12 ± 2 µM; in data set [9] (Homo sapiens, HCT-116, 72 h), 19 ± 6 µM. Besides, the ΔTm in data set [8] (literature data ref 18) is 7.4 ± 0.1[18] K. The “solute concentration at which the similar ACF distribution (nano-aggregates, radius 50–100 nm) was observed” value in data set [10] was 160 µM.

For the molecule `Ic1cc2nn[nH]c2cc1I` [HIIH, 5,6-diiodo-1H-benzotriazole], the “ligand concentration at which the membrane potential is almost fully uncoupled” value in [1] is about 15 µM. Further, the “ligand concentration required to recover 50% of the initial fluorescence drop” value in [1] was over 5 µM. Besides, in data set [1], the “ligand concentration at which relative fluorescence c.a. 0.95 was reached” value was about 12 µM. In addition, the results for the Kd in [2], in [5] (setting [11]) and in [5] (setting [12]) were 22 ± 4 nM, 374 ± 83 nM and 15 ± 7 nM, respectively. Further, the IC50 in data set [3] (Homo sapiens, HepG2, 72 h) came to 3.3 ± 0.4 µM; in data set [4] (Homo sapiens), 9.4 ± 1.4 µM; in data set [6], 780 ± 290 nM; in data set [7] (Homo sapiens, A-431, 72 h), 5.3 ± 0.7 µM; in data set [9] (Homo sapiens, HCT-116, 72 h), 6.1 ± 1.3 µM. Besides, the ΔTm in data set [8] (literature data ref 20) is 8.3 ± 0.1[20] K.

Turning to `Brc1c(I)c(I)c(Br)c2[nH]nnc12` [BIIB, 4,7-dibromo-5,6-diiodo-1H-benzotriazole], the “ligand concentration required to recover 50% of the initial fluorescence drop” value in data set [1] was “less than 2 µM”. Moreover, the “ligand concentration at which relative fluorescence c.a. 0.95 was reached” value in [1] is about 4 µM. In addition, the Kd in data set [2] stood at 1.3 ± 1.4 nM; in data set [2] (read-out: Kd2, ITC, second site (solvent exposed region at alpha/beta interface)), 82 ± 42 nM; in [5] (setting [11]), 43 ± 22 nM; in data set [5] (setting [12]), 3 ± 6 nM. Besides, the ΔS1 in data set [2] (ITC, 25 °C, strongly binding site) stood at 123 ± 10 J/mol/K. The molecule further registered a ΔS2 in [2] (ITC, second site) of 93 ± 5 J/mol/K. In addition, the IC50 in data set [3] (Homo sapiens, HepG2, 72 h) was 1.5 ± 0.3 µM; in [4] (Homo sapiens) it was 2.5 ± 0.2 µM; in data set [6], 230 ± 150 nM; in data set [7] (Homo sapiens, A-431, 72 h) it was 2.2 ± 0.3 µM; in data set [9] (Homo sapiens, HCT-116, 72 h), 1.8 ± 0.3 µM. Besides, the ΔTm in [8] (literature data ref 20) was 10.8 ± 0.1[20] K. Further, the “solute concentration at which the similar ACF distribution (nano-aggregates, radius 50–100 nm) was observed” value in [10] is 40 µM.

Regarding `Brc1c(Br)c(Br)c2[nH]nnc2c1Br` [TBBt, 4,5,6,7-tetrabromo-1H-benzotriazole], the IC50 was 13 ± 2 µM in data set [3] (Homo sapiens, HepG2, 72 h); 48 ± 18 µM in data set [4] (Homo sapiens); 7.8 ± 1.2 µM in data set [7] (Homo sapiens, A-431, 72 h); 23 ± 9 µM in [9] (Homo sapiens, HCT-116, 72 h).

Regarding `N.N.[Cl][Pt][Cl]` [cisPt, cisplatin], the IC50 in data set [3] (HEPG2, MTT, 72 h, fitted to restricted low-concentration data) stood at 2.43 ± 0.14 µM; in data set [4] (HCT116p53-/-, MTT, fitted to restricted low-concentration data) it was 2.94 ± 0.13 µM; in data set [7] (A-431, MTT, 72 h, fitted to restricted low-concentration data) it was 2.02 ± 0.06 µM; in data set [9] (HCT116, MTT, 72 h, fitted to restricted low-concentration data), 4.7 ± 0.6 µM.
